These results are taken from publication PMC7961094 (The Journal of Biological Chemistry, 2021).

Read-outs that look alike come from different tables or passages of the source.

The target of test [1] is glutamate dehydrogenase (GDH). Put plainly: 2,4-DNPH oxidative deamination assay with GDH. Type of test: biochemical, thermophilic bacterium species. To be noted: 0.25 μM GDH; for IC50: 5 mM L-glutamate, 2.5 mM NAD^+, brackets 95% confidence interval. The procedure: Next, we selected two reported GDH inhibitors to assess their IC50 values using the 2,4-DNPH α-KG assay. For these experiments, we held glutamate and NAD^+ at saturating concentrations of 5 mM and 2.5 mM, respectively, while varying the concentrations of inhibitors. Hexachlorophene (HCP) is a noncompetitive inhibitor of GDH that binds to the inner core of the GDH hexamer, thereby preventing the conformational changes necessary for catalytic turnover ([60]). […] Conversely, 2-Methyleneglutarate (2-MG) was selected as a nonaromatic, competitive inhibitor of GDH with respect to L-glutamate ([61]).
Lyophilized GDH was resuspended in a solution of 50 mM Tris-base buffer (pH 8.0) and […]. Each oxidative deamination reaction was carried out in a final volume of 0.5 ml. The cofactor mix was prepared with 50 mM Tris-base buffer (pH 8.0), 1 mM EDTA, 5 mM L-glutamate and 2.5 mM NAD^+ and commenced by adding 0.25 μM GDH. The reaction was allowed to proceed at 50 °C for up to 30 min. During the course of the reaction, 50 μl was withdrawn at various time points from the reaction tube and quenched in 50 μl of 10% TCA at predetermined time points and vortexed. The downstream processing steps are identical to those of the 2,4-DNPH α-KG assay.
(§1) Subsequent measurements were performing at time points conforming to those requirements. Initial velocities at each substrate concentration were fit using linear regression to generate Michaelis–Menten titration curves.
(§2) All data were plotted using GraphPad Prism 8.0 and presented as a mean ± standard deviation of three independent biological replicates, unless otherwise stated. For kinetic data, Km was determined by fitting the data to a least squares ordinary fit Michealis–Menten function, while IC50 values were obtained from fitting the data to a three-parameter log(inhibitor) versus response function. Where applicable, two-tailed t tests were performed to determine statistical significance using a p-value of 0.05.

The target of test [2] is PHD2_181-426 (Homo sapiens, UniProt Q9GZT9). Put plainly: 2,4-DNPH α-KG assay with PHD2. The method, then: (§3) During the course of the reaction, 50 μl was withdrawn at various time points from the reaction tube and quenched in 50 μl of 10% TCA at predetermined time points and vortexed.
as §1, §2

Test [3] has as its target PHD3 (Homo sapiens, UniProt Q9H6Z9). Description: 2,4-DNPH α-KG assay with PHD3. The procedure:
as §3, §1, §2

Test [4] deals with PHD2. To be noted: read-out: Km (app; α-KG), cited from earlier work.
Test [5] has as its system PHD3. To be noted: read-out: Km (app; α-KG), cited from earlier work.

Sequence of PHD2_181-426 (Q9GZT9 181-426): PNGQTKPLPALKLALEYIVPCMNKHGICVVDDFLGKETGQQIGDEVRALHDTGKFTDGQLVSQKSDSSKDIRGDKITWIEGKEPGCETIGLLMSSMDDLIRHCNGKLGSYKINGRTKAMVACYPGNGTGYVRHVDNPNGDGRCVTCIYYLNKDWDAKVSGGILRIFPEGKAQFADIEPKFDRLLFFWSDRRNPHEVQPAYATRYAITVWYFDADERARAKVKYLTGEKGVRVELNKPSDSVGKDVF
Sequence of PHD3 (Homo sapiens, UniProt Q9H6Z9) (Q9H6Z9 whole entry): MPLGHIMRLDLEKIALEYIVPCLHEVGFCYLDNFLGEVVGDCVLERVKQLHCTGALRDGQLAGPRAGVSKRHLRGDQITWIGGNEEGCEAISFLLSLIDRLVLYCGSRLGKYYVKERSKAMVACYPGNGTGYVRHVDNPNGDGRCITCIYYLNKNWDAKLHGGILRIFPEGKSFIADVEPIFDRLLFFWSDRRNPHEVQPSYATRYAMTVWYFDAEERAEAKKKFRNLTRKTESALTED

A word on the IC50: it is the midpoint of a concentration-inhibition curve. High values mean weaker potency in that assay, low ones greater potency in that assay. On to `C=C(CCC(=O)O)C(=O)O` [2-MG, 2-methyleneglutaric acid, reference compound], for which the IC50 in test [1] and in test [1] (listed as 2-Methyleneglutarate (2-MG)) was 24.9 µM throughout.

Take `[Cl-].[Cl-].[Co+2]` [CoCl2, cobalt (II) chloride, reference compound]: the IC50 was determined as 6.4 µM in test [2] and 79.3 µM in test [3] (0.5 mM α-ketoglutarate, 100 μM HIF peptide, 10 μM PHD3, brackets 95% confidence interval).

In test [1], `Oc1c(Cl)cc(Cl)c(Cl)c1Cc1c(O)c(Cl)cc(Cl)c1Cl` [HCP, Hexachlorophene, reference compound] gave an IC50 of 1.52 µM.

The Km is the concentration of substrate that gives half-maximal velocity. For `NC(=O)c1ccc[n+]([C@@H]2O[C@H](COP(=O)([O-])OP(=O)(O)OC[C@H]3O[C@@H](n4cnc5c(N)ncnc54)[C@H](O)[C@@H]3O)[C@@H](O)[C@H]2O)c1` [NAD^+, nicotinamide adenine dinucleotide], the “kcat for NAD^+” value in test [1] (increasing NAD^+, saturating other reagents) worked out at 4.2 ± 0.13 s⁻¹. Further, in test [1] (increasing NAD^+, saturating other reagents, read-out: Km for NAD^+), the Km was determined as 517 ± 55.8 µM.

In test [3], `O=C(O)CNC(=O)C(=O)O` [NOG, N-oxalylglycine] registered an IC50 of 51.3 µM. In other words, the double-digit micromolar range.

On to `N[C@@H](CCC(=O)O)C(=O)O` [glutamate, L-glutamate], for which the kcat for glutamate in test [1] (increasing L-glutamate, saturating other reagents) was 4.47 ± 0.067 s⁻¹. For the same compound, in test [1] (increasing L-glutamate, saturating other reagents, read-out: Km for glutamate), the Km worked out at 746 ± 58.6 µM.

For the compound `O=C(O)CCC(=O)C(=O)O` [α-ketoglutarate], the “kcat (α-ketoglutarate titration)” value in test [2] was 0.0717 ± 0.005 s⁻¹. Further, the Km was 0.343 ± 0.028 µM in test [4] (PHD2, ref Dao et al. ([52])); 60 µM in test [4] (PHD2, ref Hirsila et al. ([2])); 1 ± 0.2 µM in test [4] (PHD2, ref Koivunen et al. ([51])); 55 ± 1.1 µM in test [4] (PHD2^181–426, ref Ehrismann et al. ([11])); 25 ± 6 µM in test [4] (PHD2^181–426, ref McNeill et al. ([10])); 13 ± 2 µM in test [4] (PHD2^181–426, ref Tarhonskaya et al. ([19])). Further, the results for the Km in test [5] (ref Hirsila et al. ([2])), in test [5] (ref Koivunen et al. ([51])) and in test [5] (ref Oehme et al. ([25])) were 55 µM, 12 ± 4 µM and 3 µM, respectively.
